Data as given in US8415357B2 (Canbas Co., Ltd., priority 2007, dated 2013).

Test system: Jurkat cells
Assay: Adaptation to G2 cell cycle arrest (G1 increment) in X-ray pre-arrested Jurkat cells, flow cytometry
Format: cell-based, human
Details: Homo sapiens, Jurkat, 24 h, concentration causing half-maximal increase of % cells in G1 phase (G1 increment), Jurkat pre-arrested by 10 Gy X-ray, 24 hours with compound
Procedure: Phenotype-based screening was used to measure the ability of compounds of the invention to cause adaptation to G2 cell cycle arrest in G2-arrested cells. Adaptation to G2 cell cycle arrest and re-entry into the cell cycle can result in death of the previously G2-arrested cell, or suppression (inhibition) of further proliferation of the previously G2-arrested cell. In a non-limiting embodiment, the ability to cause adaptation to G2 cell cycle arrest was measured by contacting cells in which G2 arrest had been induced by irradiation (e.g., gamma (γ) radiation or X-ray radiation), with compounds of the invention at various concentrations and, for each compound at each concentration, determining the percentage of cells that escaped G2 arrest and re-entered the cell cycle, by determining the percentage of cells in G1 phase. The IC50 value for each compound was calculated as the dosage (usually in μM) that caused half-maximal increase of the percentage of cells in G1 phase (the G1 increment) measured for that compound. Certain invention compounds were initially identified by phenotype-based screening of small molecule libraries for activity against G2-arrested cells as described above.
Jurkat cells (a human T cell lymphoma-derived cell line) were arrested at the G2 phase by X-ray irradiation at 10 Gy, and cultured for 24 hours in 10% fetal calf serum (FCS)/RPMI1640 at 37° C. with 5% CO2/air. (FCS was from Equitech-Bio, Kerrville, Tex., and RPMI1640 was from Sigma-Aldrich, St. Louis, Mo.) Test compounds were added to the medium at the indicated doses, and the cells were cultured under the conditions described above, for an additional 24 hours before harvesting.
Harvested cells were stained with Krishan's buffer (0.1% sodium citrate, 50 μg/ml propidium iodide, 20 μg/ml RNase A, 0.5% Nonidet P-40) and analyzed by flow cytometry (BD Biosciences, Franklin Lakes, N.J.) to identify the cell stage of each cell in the sample. Cells in G1 phase were identified by having […] (2N) DNA content.
The IC50 value for each compound was calculated as the dosage showing half maximal activity to induce the increase of the percentage of cells in G1 phase (the G1 increment). IC50 values were used to measure the activity of compounds and to determine structure-activity relationships.
Pre-arrested Jurkat cells were prepared as described in Example 1. Briefly, Jurkat cells were subjected to X-ray irradiation at a dose of 10 Gy, and cultured for 24 hours in 10% fetal calf serum (FCS)/RPMI1640 at 37° C. with 5% CO2/air, after which time cells were exposed to various concentrations of test compounds, and cultured under the conditions described above for an additional 24 hours before harvesting. Harvested cells were stained with Krishan's buffer (0.1% sodium citrate, 50 μg/ml propidium iodide, 20 μg/ml RNase A, 0.5% Nonidet P-40) and analyzed by flow cytometry (BD Biosciences, Franklin Lakes, N.J.) to identify the cell stage of each cell in the sample. Cells in G1 phase were identified by having […] (2N) DNA content.
The IC50 value for each compound was calculated as the dosage (concentration in μM) that caused half-maximal increase of the percentage of cells in G1 phase (the G1 increment) measured for that test compound. Table 1 below presents the structure, mass, 1H NMR values, and […] values for representative compounds.
The IC50 value for each compound was calculated as the dosage (concentration in μM) that caused half-maximal increase of the percentage of cells in G1 phase (the G1 increment) measured for that test compound. Table 2 below presents structures, IUPAC name, molecular formula, ID number (“SCID”), mass, 1H NMR values, and IC50 values for representative compounds. Table 3 presents structures, IUPAC name, molecular formula, ID number (“SCID”), mass, 1H NMR values, and IC50 values for further representative compounds.

SMILES | IC50 (Table 1) [µM] | IC50 (Table 2) [µM]
CC1=C(C)C(=O)N(Nc2nc(Cl)ccc2C(F)(F)F)C1=O [Compound S00108] | 20 | –
CC1=C(C)C(=O)N(Cc2ccc(C(F)(F)F)cn2)C1=O [Compound S00110] | 60 | –
CC1C(=O)N(Nc2ccc(C(F)(F)F)cn2)C(=O)C1Sc1ccccc1 (stereo not shown) [Compound S00145] | 30 | –
CC1=C(c2ccccc2)C(=O)N(Nc2ccc(C(F)(F)F)c(Cl)n2)C1=O [Compound S00257] | 10 | –
CC1=C(C)C(=O)N(Nc2cc(Cl)ccc2C)C1=O [Compound S00319] | 10 | –
CC1=CC(=O)N(Nc2ccc(C(F)(F)F)c(Cl)n2)C1=O [Compound S00333] | 15 | –
O=C1C(Cl)=C(Cl)C(=O)N1Nc1cccc(C(F)(F)F)c1 [Compound S00406] | 80 | –
CC1=C(C)C(=O)N(Cc2ccc(C(F)(F)F)cc2Cl)C1=O [Compound S00408] | 10 | –
O=C1C(Cl)=C(Cl)C(=O)N1Cc1ccc(C(F)(F)F)cc1 [Compound S00409] | 20 | –
COC1=C(C)C(=O)N(Cc2ccc(C(F)(F)F)cc2)C1=O [Compound S00410] | 10 | –
CC1=C(C)C(=O)N(Cc2ccc(C(F)(F)F)c(F)c2)C1=O [Compound S00412] | 10 | –
COc1nc(NN2C(=O)C(C)=C(C)C2=O)ccc1C(F)(F)F [Compound S00451] | 60 | –
CC1=C(C)C(=O)N(Nc2ccc(C)c(C)c2)C1=O [Compound S00452] | 10 | –
CC1=C(C)C(=O)N(Nc2ccc(-c3ccccc3)cc2)C1=O [Compound S00515] | 20 | –
CC1=C(C)C(=O)N(C(C)c2ccc(Br)cc2)C1=O (stereo not shown) [Compound S00543] | 60 | –
CC1=C(C)C(=O)N(Nc2cc(C(F)(F)F)ccc2Br)C1=O [Compound S00623] | 10 | –
CC1=C(C)C(=O)N(Nc2ccc(C(F)(F)F)cc2Br)C1=O [Compound S00624] | 10 | –
CC1=C(C)C(=O)N(Oc2ccc(C)cc2)C1=O [Compound S00628] | 60 | –
CC1=C(C)C(=O)N(Nc2cc(C(C)(C)C)ccc2Br)C1=O [Compound S00649] | 10 | –
CC1=C(C)C(=O)N(Nc2ccc3ccccc3c2)C1=O [Compound S00651] | 10 | –
CC1=C(C)C(=O)N(N2CCc3cc(C)ccc32)C1=O [Compound S00662] | 60 | –
CC1=C(C)C(=O)N(n2ccc3cc(C)ccc32)C1=O [Compound S00663] | 40 | –
CC1=C(C)C(=O)N(Nc2ccc(C(F)(F)F)cc2Cl)C1=O [Compound S00699] | 10 | –
CC1=C(C)C(=O)N(Nc2cc(Cl)c(Cl)c(Cl)c2)C1=O [Compound S00832, 3,4-dimethyl-1-[(3,4,5-trichlorophenyl)amino]azoline-2,5-dione] | – | 0.3
CC1=C(C)C(=O)N(Nc2cc(Cl)c3cccc(C)c3n2)C1=O [Compound S00871, 1-[(4-chloro-8-methyl(2-quinolyl))amino]-3,4-dimethylazoline-2,5-dione] | – | 0.625
CC1=C(C)C(=O)N(Nc2cc(C(F)(F)F)c3ccccc3n2)C1=O [Compound S00873, 3,4-dimethyl-1-{[4-(trifluoromethyl)(2-quinolyl)]amino}azoline-2,5-dione] | – | 0.3
CC1=C(C)C(=O)N(Nc2cc(Cl)c3cc(C)ccc3n2)C1=O [Compound S00935, 1-[(4-chloro-6-methyl(2-quinolyl))amino]-3,4-dimethylazoline-2,5-dione] | – | 0.625
CC1=C(C)C(=O)N(Nc2ccc(Br)c3ccccc23)C1=O [Compound S00942, 1-[(4-bromonaphthyl)amino]-3,4-dimethylazoline-2,5-dione] | – | 0.625

Further lines, results first:

IC50 (Table 1) [µM] | IC50 (Table 2) [µM] | SMILES
5 | – | CC1=C(C)C(=O)N(Nc2cc(C(F)(F)F)cc(C)n2)C1=O [Compound S00069]
2.5 | – | CC1=C(C)C(=O)N(Nc2ccc(C(F)(F)F)cn2)C1=O [Compound S00073]
5 | – | CC1=C(C)C(=O)N(N(C)c2cc(C(F)(F)F)cc(C)n2)C1=O [Compound S00084]
10 | – | CC1=C(C)C(=O)N(Cc2ccc(C(F)(F)F)cc2)C1=O [Compound S00088]
0.12 | 0.12 | CC1=C(C)C(=O)N(N(C)c2ccc(C(F)(F)F)c(Cl)n2)C1=O [Compound S00170]
0.63 | 0.625 | O=C1C2=C(CCCC2)C(=O)N1Nc1ccc(C(F)(F)F)c(Cl)n1 [Compound S00186, 2-{[6-chloro-5-(trifluoromethyl)-2-pyridyl]amino}-4,5,6,7-tetrahydroisoindole-1,3-dione]
5 | – | O=C1C2=C(CCCC2)C(=O)N1Nc1ccc(C(F)(F)F)cn1 [Compound S00200]
10 | – | CC1=C(C)C(=O)N(Cc2ccc(Cl)c(C(F)(F)F)c2)C1=O [Compound S00201]
5 | – | CC1=C(C)C(=O)N(Nc2ccc(C)cc2C)C1=O [Compound S00294]
5 | – | CC1=C(C)C(=O)N(Nc2nc3ccccc3s2)C1=O [Compound S00295]
5 | – | CC1=C(C)C(=O)N(Nc2cccc(C(F)(F)F)c2)C1=O [Compound S00305]
5 | – | CC1=C(C)C(=O)N(Nc2ccc3ccccc3n2)C1=O [Compound S00362]
2.5 | – | CC1=C(C)C(=O)N(Nc2ccc(Cl)c(C(F)(F)F)c2)C1=O [Compound S00405]
4 | – | CC1=C(C)C(=O)N(Nc2nc3ccc(F)cc3s2)C1=O [Compound S00454]
2.5 | – | CC1=C(C)C(=O)N(Nc2cc(Cl)cc(Cl)c2)C1=O [Compound S00456]
2.5 | – | CC1=C(C)C(=O)N(Nc2cc(C(F)(F)F)cc(C(F)(F)F)c2)C1=O [Compound S00474]

IC50 (Table 1) [µM] | IC50 (Table 2) [µM] | SMILES
3.75 | – | CC1=C(C)C(=O)N(Nc2cccc3ccccc23)C1=O [Compound S00475]
2.5 | – | CC1=C(C)C(=O)N(Nc2ccc(C(C)(C)C)cc2)C1=O [Compound S00479]
5 | – | CSCc1cc(C(F)(F)F)ccc1NN1C(=O)C(C)=C(C)C1=O [Compound S00499]
5 | – | CC1=C(C)C(=O)N(Nc2cc(C(F)(F)F)ccc2C)C1=O [Compound S00512]
5 | – | CC1=C(C)C(=O)N(Cc2ccc(C(F)(F)F)c(Cl)c2)C1=O [Compound S00513]
1.25 | 0.625 | CC1=C(C)C(=O)N(Nc2ccc(Br)c(C(F)(F)F)c2)C1=O [Compound S00516, 1-{[4-bromo-3-(trifluoromethyl)phenyl]amino}-3,4-dimethylazoline-2,5-dione]
0.45 | 0.3 | CC1=C(C)C(=O)N(Nc2ccc3cccc(Cl)c3n2)C1=O [Compound S00585, 1-[(8-chloro(2-quinolyl))amino]-3,4-dimethylazoline-2,5-dione]
2.5 | – | CC1=C(C)C(=O)N(N(C)c2cc(Cl)cc(Cl)c2)C1=O [Compound S00587]
5 | – | CC1=C(C)C(=O)N(Nc2nc3ccc(Cl)cc3s2)C1=O [Compound S00590]
5 | – | CC1=C(C)C(=O)N(Nc2ccc3cc(Cl)ccc3n2)C1=O [Compound S00622]
2 | – | CC1=C(C)C(=O)N(Nc2cccc(C(C)(C)C)c2)C1=O [Compound S00627]
2.5 | – | CC1=C(C)C(=O)N(Nc2ccc(C)c(C(F)(F)F)c2)C1=O [Compound S00697]
5 | – | CC1=C(C)C(=O)N(Nc2ccc3c(c2)C(C)(C)CCC3(C)C)C1=O [Compound S00698]
0.63 | 0.625 | CC1=C(C)C(=O)N(Nc2ccc(Cl)c3ccccc23)C1=O [Compound S00738, 1-[(4-chloronaphthyl)amino]-3,4-dimethylazoline-2,5-dione]
1.25 | – | CC1=C(C)C(=O)N(Nc2nc3c(Cl)cccc3s2)C1=O [Compound S00756]
